We go through eight compounds from US4835190A, “Phenolic thioethers as inhbitors of 5-lipoxygenase” (G. D. Searle & Co., priority 1987, dated 1989).

One experiment concerns the target T1, 5-lipoxygenase (Rattus norvegicus, UniProt P12527).
T1 construct: supernatant fraction of Rat Basophilic Leukemia Cell Homogenate (RBL-1) serves as a 5-lipoxygenase enzyme source; endogenous in cells; host or cells: RBL-1 (rat basophilic leukemia) cells, 100,000×g supernatant of homogenate
T1 sequence (P12527 1-673): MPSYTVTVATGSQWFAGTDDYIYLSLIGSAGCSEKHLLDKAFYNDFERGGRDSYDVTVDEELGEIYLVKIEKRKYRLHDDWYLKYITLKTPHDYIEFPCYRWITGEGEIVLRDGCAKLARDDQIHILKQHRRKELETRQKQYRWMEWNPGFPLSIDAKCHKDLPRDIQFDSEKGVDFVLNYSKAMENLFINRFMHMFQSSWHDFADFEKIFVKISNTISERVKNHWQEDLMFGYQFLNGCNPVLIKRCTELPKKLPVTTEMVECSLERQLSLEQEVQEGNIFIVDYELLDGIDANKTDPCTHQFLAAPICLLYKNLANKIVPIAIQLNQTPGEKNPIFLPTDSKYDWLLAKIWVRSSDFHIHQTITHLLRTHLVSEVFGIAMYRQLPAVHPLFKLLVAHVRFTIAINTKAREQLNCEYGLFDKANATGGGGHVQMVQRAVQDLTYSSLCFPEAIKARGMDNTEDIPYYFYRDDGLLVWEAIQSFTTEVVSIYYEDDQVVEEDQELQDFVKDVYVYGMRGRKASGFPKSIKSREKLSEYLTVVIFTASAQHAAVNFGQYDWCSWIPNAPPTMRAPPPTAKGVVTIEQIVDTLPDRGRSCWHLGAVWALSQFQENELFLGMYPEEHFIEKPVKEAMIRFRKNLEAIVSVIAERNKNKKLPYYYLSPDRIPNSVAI
Description: Inhibition of 5-lipoxygenase, in vitro (5-HETE synthesis, RBL-1 homogenate supernatant). It counts as biochemical. To be noted: RBL-1 100,000×g supernatant, [1-14C]-arachidonic acid and Ca++, 5-HETE by TLC; initial screen 1×10^-4 M. The procedure:
The compounds of the invention are evaluated with respect to 5-lipoxygenaseinhibition according to the following assay procedure.
Inhibition of 5-lipoxygenase, in vitro: anti-inflammatory, anti-allergy activities. The 100,000×g supernatant fraction of Rat Basophilic Leukemia Cell Homogenate (RBL-1) serves as a 5-lipoxygenase enzyme source. The enzyme is incubated with [1-^14 C)-arachidonic acid and Ca++ in the presence and absence of test compound. The product of 5-lipoxygenase, 5-hydroxyeicosatetraenoic acid (5-HETE), is separated by thin-layer chromatography and measured by radioactivity. A compound inhibiting 5-HETE synthesis by 30% or more is considered active at that concentration.

The conditions of experiment [1]: versus histamine; cited from earlier work.

`CCCCCSc1cc(C(C)(C)C)c(O)c(C(C)(C)C)c1` [Example 3, 2,6-bis(1,1-dimethylethyl)-4-(pentylthio)phenol] displayed a concentration for half-maximal inhibition (IC50) against 5-lipoxygenase of 1.2 µM.
`CC(C)Sc1cc(C(C)(C)C)c(O)c(C(C)(C)C)c1` [Example 4, 2,6-bis(1,1-dimethylethyl)-4-[(1-methylethyl)thio]-phenol]: the IC50 at 5-lipoxygenase was 1.3 µM.
On the same count and under the same terms, to `CSc1cc(C(C)(C)C)c(O)c(C(C)(C)C)c1` [Example 5, 2,6-bis(1,1-dimethylethyl)-4-(methylthio)phenol] belongs 0.58 µM; to `C[S+]([O-])c1cc(C(C)(C)C)c(O)c(C(C)(C)C)c1` (centres unmarked) [Example 6, 2,6-bis(1,1-dimethylethyl)-4-(methylsulfinyl)phenol], 100 µM.
For the compound `CC(C)(C)c1cc(S(C)(=O)=O)cc(C(C)(C)C)c1O` [Example 7, 2,6-bis(1,1-dimethylethyl)-4-(methylsulfonyl)phenol], the “5-Lipoxygenase Inhibition, in vitro, IC50” value on 5-lipoxygenase is “Inactive”.
`COc1c(C(C)(C)C)cc(SC)cc1C(C)(C)C` [Example 8, 2,6-bis(1,1-dimethylethyl)-1-methoxy-4-(methylthio)benzene] had an IC50 against 5-lipoxygenase of 100 µM.
Still for that read-out and setting: to `CSc1c(O)c(C(C)(C)C)cc(C(C)(C)C)c1O` [Example 9, 4,6-bis(1,1-dimethylethyl)-2-(methylthio)-1,3-benzenediol] belongs 11 µM.
`CCCCC/C=C\C\C=C/C=C/C=C/[C@@H](SC[C@H](NC(=O)CC[C@H](N)C(=O)O)C(=O)NCC(=O)O)[C@@H](O)CCCC(=O)O` [LTC4]: in experiment [1], the “potency relative to histamine in causing long lasting bronchoconstricting effects” value was “at least 100 times”.
